Measured values: patent US8709745B2, “Methods for isolating ligands of the human bitter taste receptor TAS2R49” (Deutsches Institut für Ernährungsforschung Potsdam-Rehbrücke, priority 2009, dated 2014)
Entries after “also recorded” stand apart in the source; their conditions may differ. Structures can show the parent of a compound that is named as a salt.

Assays:
[1] = molecular target: T1, TAS2R49 human bitter taste receptor (Homo sapiens, UniProt P59543, K79E); assay: FLIPR calcium assay in HEK-293T Gα16gust44 cells transiently transfected with SST-hTAS2R49-HSV; assay type: cell-based; details: for activation of hTAS2R49 (calcium response): hTAS2R49 transfected vs mock transfected cells
T1 construct: first 45 amino acids of rat somatostatin receptor type 3 (SST), membrane-targeting signal (N); expressed in transfected cells; host or cells: HEK-293T cells stably expressing the chimeric G-protein alpha subunit Gα16gust44; vector pcDNA5/FRT
T1 sequence (P59543 1-309 K79E): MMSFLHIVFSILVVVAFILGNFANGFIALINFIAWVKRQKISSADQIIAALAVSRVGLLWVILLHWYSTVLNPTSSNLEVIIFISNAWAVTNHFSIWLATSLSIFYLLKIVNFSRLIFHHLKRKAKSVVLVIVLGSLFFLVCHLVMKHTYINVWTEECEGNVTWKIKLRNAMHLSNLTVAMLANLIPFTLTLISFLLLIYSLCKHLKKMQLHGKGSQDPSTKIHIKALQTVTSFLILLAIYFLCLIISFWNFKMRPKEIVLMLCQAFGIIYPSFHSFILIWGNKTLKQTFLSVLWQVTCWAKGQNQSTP
Text: The TAS2R49 human bitter taste receptor was functional expressed in a heterologouse cell system. Therefore, the coding region for this hTAS2R was cloned into a vector (pcDNA5/FRT, Invitrogen, San Diego, Calif.). The construct includes the sequence for the first 45 amino acids of a rat somatostatin receptor type 3 (SST) coupled to the N-terminal end of the receptor for an improvement of receptor membrane targeting. At the C-terminus of the bitter taste receptor a herpes simplex virus glycoprotein D (HSV) epitope was added for immunocytochemical detection. The SST-hTAS2R49-HSV pcDNA5/FRT plasmid construct was transiently transfected into HEK-293T cells stably expressing the chimeric G-protein a subunit Gal6gust44. An empty pcDNA5/FRT plasmid /vector were used as negative control. The cells were seeded into 96-well plates (Greiner Bio-One, Frickenhausen, Germany) under conventional cell culture conditions (Dulbecco's Modified Eagle Medium (DMEM)/10% FCS/1% penicillin/streptomycin; 37° C., 5% CO2, 95% humidity) and 24-26 h later transfected with 150 ng plasmid DNA and 300 ng Lipofectamine 2000 (Invitrogen, San Diego, Calif.). 24-26 h later the cells were loaded with the calcium sensitive dye Fluo4-acetoxymethyl (Molecular Probes, Karlsruhe, Germany) with a final concentration of 20 μM in serum-free DMEM medium. The organic anion-transport inhibitor probenecid (Sigma Aldrich, München, Germany) was added to the dye/medium solution to reduce leakage of the indicator after cleavage of the ester bonds. 1 h after loading, the well plates were washed 3 times with 30 min incubation between the last second wash steps (protected from light) by Denley cell washer (Thermo Fisher Scientific Inc., Waltham, Mass.). The washing solution contains 130 mM NaCl, 5 mM KCl, 10 mM HEPES with pH 7.4, 2 mM CaCl2, and 10 mM Glucose. The agonist was solved and diluted in wash solution.
The elevation of the cytosolic calcium concentration was measured after application of the test substances using the Fluorometric Imaging Plate Reader (FLIPR, Molecular Devices, Munich, Germany) at […]. The vitality of the cells was verified by a second application of 100 nM somatostatin-14, an agonist of the endogenous […] somatostatin receptor type 2. To exclude unspecific responses and false positive signals, mock transfected cells were always measured on the same plate with the same compound concentration each. All experiments were performed at least twice. For the calculation of the dose-response function, the signals of the wells with the same concentration of the agonist were automatically normalized with the control wells (mock transfection, Fmock) by FLIPR384® software (Molecular Devices, Munich, Germany). To consider the dye loading efficiency and the cell number the background fluorescence was measured for each plate/each well and denoted as signal test. […] The calculation of the EC50 values were prepared in SigmaPlot 9.0 by nonlinear regression to the function f(x)=100/[1+(EC50/x)nH], where x is the agonist concentration and nH is the Hill coefficient.

[2] = vendor property list; cited from earlier work
[3] = averaged dose response curve (n=5), FIG. 1

Row | SMILES | EC50 [1, 3] | threshold [1, 3] | activation of hTAS2R49 (calcium response) [1] | water solubility [2] | activation of hTAS2R49 (calcium response) ([1]; listed as Diphenidol)
1 | O=C(O)c1cc(=O)c2c(OCC(O)COc3cccc4oc(C(=O)O)cc(=O)c34)cccc2o1 [cromolyn] | 42 ± 13 µM | ~0.01 mM | responded robustly; also recorded: effective agonist of hTAS2R49 |  | 
2 | O=C(O)c1cc(=O)c2c(OCC(O)COc3cccc4oc(C(=O)O)cc(=O)c34)cccc2o1 [Cromolyn sodium, disodium salt of 5,5′-[(2-hydroxytrimethylene)dioxy]bis[4-oxo-4H-1-benzopyran-2-carboxylate]] |  |  |  | water-soluble | 
3 | OC(CCCN1CCCCC1)(c1ccccc1)c1ccccc1 [diphenidol] |  |  | activated the receptor |  | agonist for hTAS2R49
